Experimental data published in patent publication US10077295B2, “Glycoproteins having lipid mobilizing properties and therapeutic uses thereof” (Aston University, priority 2010, dated 2018).

Key:
[1] = test system: rat epididymal adipocytes; experiment: Lipolytic activity in rat adipocytes; assay type: cell-based; conditions: rat epididymal adipocytes
Description: Lipolytic Activity in Rat Adipocytes—White adipocytes were prepared from finely minced epididymal adipose tissue of male Wistar rats (400 g) using collagenase digestion, as described (Beck S A, et al. Production of lipolytic and proteolytic factors by a murine tumor-producing cachexia in the host. Cancer Res 47:5919-5923, 1987). Lipolytic activity was determined by incubating 10^5-2×10^5 adipocytes for 2 h in 1 ml Krebs-Ringer bicarbonate buffer, pH 7.2, and the extent of lipolysis was determined by measuring the glycerol released (Wieland O. Glycerol UV method. Methods of Enzymatic Analysis, edited by Bergmeyer H U. Academic Press, London, pp 1404-1409, 1974). Spontaneous glycerol release was measured by incubating adipocytes alone. Lipolytic activity was expressed as μmol glycerol released/10^5 adipocytes/2 h.

[2] = biological target: T1, β3-AR (Homo sapiens, UniProt P13945); experiment: Cyclic AMP production in CHO-K1 cells transfected with β3-AR; assay type: cell-based; parameters: host or cells: CHO-K1; conditions: CHO β3-AR
T1 sequence (P13945 whole entry): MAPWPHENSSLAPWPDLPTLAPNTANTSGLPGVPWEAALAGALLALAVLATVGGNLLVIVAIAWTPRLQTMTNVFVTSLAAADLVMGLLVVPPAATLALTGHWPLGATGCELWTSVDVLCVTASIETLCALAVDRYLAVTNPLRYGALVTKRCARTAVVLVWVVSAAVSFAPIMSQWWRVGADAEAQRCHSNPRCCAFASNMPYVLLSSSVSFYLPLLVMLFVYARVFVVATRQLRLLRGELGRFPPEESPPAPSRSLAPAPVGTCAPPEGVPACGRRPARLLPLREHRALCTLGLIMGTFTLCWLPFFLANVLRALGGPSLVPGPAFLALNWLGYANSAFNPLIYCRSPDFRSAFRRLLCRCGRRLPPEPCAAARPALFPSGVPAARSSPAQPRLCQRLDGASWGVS
Description: (§1) Binding Studies and Cyclic AMP Determination. CHO-K1 cells transfected with the human β1- and β2-AR obtained from University of Nottingham, UK, while CHOK1 cells transfected with the β3-AR were obtained from Astra Zeneca, Macclesfield, Cheshire, UK. Gene expression was under the control of hygromycin, together with a β-gal reporter construct, selected for resistance to G418. They were maintained in DMEM supplemented with 2 mM glutamine, hygromycin B ([…]), G418 ([…]), and 10% FCS, under an atmosphere of 10% CO2 in air. To determine the effect of agonists on cyclic AMP production, cells were grown in 24-well plates containing 1 ml of nutrient medium.

[3] = test system: murine myotubes; experiment: Murine myotubes subjected to high glucose: protein degradation, protein synthesis, ROS, pPKR; assay type: cell-based, mouse; conditions: 10 or 25 mM glucose; ZAG 25 μg/ml
Description: This utilizes murine myotubes subjected to high concentrations of glucose (10 or 25 mM). […] However the SR compound (i.e., SR59230A) can also act as a β-agonist, which it seemed to do in these experiments.
It has been shown that formation of reactive oxygen species (ROS) is important in protein degradation induced by high glucose load. […] High glucose also induces activation (phosphorylation) of PKR (FIG. 22A) and the subsequent phosphorylation of eIF2α (FIG. 22B) as is seen in skeletal muscle of ob/ob mice, which was also attenuated by ZAG.

[4] = biological target: T2, human β2-AR (Homo sapiens, UniProt P07550); experiment: Cyclic AMP production in CHO-K1 cells transfected with β2-AR; assay type: cell-based; conditions: CHO β2-AR, SR59230A 10 μM
T2 construct: host or cells: CHO-K1
T2 sequence (P07550 whole entry): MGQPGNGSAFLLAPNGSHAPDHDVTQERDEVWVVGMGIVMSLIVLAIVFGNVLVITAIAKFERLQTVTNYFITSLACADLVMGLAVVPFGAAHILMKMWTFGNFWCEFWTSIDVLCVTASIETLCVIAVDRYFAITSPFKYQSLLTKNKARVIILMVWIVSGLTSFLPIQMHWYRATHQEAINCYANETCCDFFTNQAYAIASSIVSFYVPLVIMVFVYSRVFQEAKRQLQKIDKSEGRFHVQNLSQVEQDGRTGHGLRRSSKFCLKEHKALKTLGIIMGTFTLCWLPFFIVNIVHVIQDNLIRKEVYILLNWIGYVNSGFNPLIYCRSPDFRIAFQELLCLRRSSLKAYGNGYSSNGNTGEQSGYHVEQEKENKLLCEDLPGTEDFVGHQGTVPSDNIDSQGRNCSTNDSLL
Description: as §1

[5] = test system: adipocytes, BAT; experiment: Expression of ZAG, HSL, UCP in adipose tissue/adipocytes of mice (5 day ZAG study); assay type: in vivo, mouse; conditions: ERK inhibitor added with ZAG
Description: Western Blot Analysis. Freshly excised gastrocnemius muscles were washed in PBS and lysed in PHOSPHOSAFE™ Extraction Reagent for 5 min at room temperature followed by sonication at 4° C. The lysate was cleared by centrifugation at 18,000 g for 5 min at 4° C. and samples of cytosolic protein (5 μg) were resolved on 12% sodium dodecyl sulfate-polyacrylamide gel electrophoresis at 180V for approximately 1 h. This was followed by transference to 0.45 μm nitrocellulose membranes, which were then blocked with 5% Marvel in Tris-buffered saline, pH 7.5, at 4° C. overnight. Both primary and secondary antibodies were used at a dilution of 1:1000 except anti-myosin (1:250). Incubation was for 1 h at room temperature, and development was by ECL. Blots were scanned by a densitometer to quantify differences.
A 5 day study was performed where ZAG was administered at 35 μg per day i.v. on a daily basis for 5 days. At the end of the experiment tissues were removed and blotted, or functional assays were carried out with isolated adipocytes. […] When ep adipocytes were prepared and maintained in tissue culture (RPMI 1640+10% FCS) ZAG expression was maintained for a further 3 days, even though no ZAG was added to the culture medium (FIG. 6B). […] In fact, as discussed above, too much ZAG is more likely to lead to resistance rather than an increased response.

[6] = test system: ob/ob mice; experiment: ob/ob mice treated with ZAG i.v. with or without propanolol; assay type: in vivo, mouse; conditions: propanolol 40 mg kg−1 po daily
Description: Animals. […] Male mice (about 20 weeks of age) were grouped into three per cage and kept in an air conditioned room at 22±2° C., with ad libitum feeding of a rat and mouse breeding diet (Special Diet Services, Witham, UK) and tap water. Mice were administered ZAG (50 μg, i.v. in 100 μl PBS) or PBS daily with or without propanolol (40 mgkg^−1, po, daily) and body weight and food and water intake were determined, as well as urinary glucose excretion and body temperature, determined by the use of a rectal thermometer (RS Components, Northants, UK). A glucose tolerance test was performed on day 3. […] Blood samples were removed from the tail vein at 15, 30, 60 and 120 min after glucose administration and used for the measurements of glucose and insulin. At the end of the experiment the animals were terminated by cervical dislocation, tissues removed and rapidly frozen in liquid nitrogen, and maintained at −80° C.
To determine whether ZAG can increase insulin signalling the effect on Glut4 expression was determined.

[7] = test system: ob/ob mice; experiment: Oral (p.o.) administration of rhZAG to ob/ob mice; assay type: in vivo, mouse; conditions: 50 ug ZAG p.o. daily with propranolol
Description: 50 ug per day of rhZAG was administered p.o. to Aston ob/ob mice. Oral dosing was achieved by assuming 5 mL/day consumption of water, and adding ZAG to achieve 50 ug per day dose based on that assumption. No attempt was made to correct for variations of consumption on a given day.
Experiment One (8 Day Oral ZAG Study): 50 ug of ZAG was administered p.o. daily in drinking water.
Experiment Two (8 Day Oral ZAG Plus Propranolol Study): 50 ug of ZAG administered p.o. daily, with and without propranolol. Propanolol blocks all of the effects of ZAG including decrease in body weight and blood glucose in the tolerance test, also blocking the rise in body temperature and the rise in plasma mouse ZAG, confirming that this occurs through a beta adrenergic receptor. […] It appears to do this by preventing the rise in mouse ZAG in the serum after oral administration of the rhZAG.
Experiment Three (Oral Study): ZAG administered p.o. daily over an extended time frame, with a recovery group split from the treated group beginning at 30 days (data not shown).

[8] = biological target: T1, β3-AR; conditions: high affinity binding site; cited from earlier work

In the case of `CCc1ccccc1OC[C@@H](O)CN[C@H]1CCCc2ccccc21` [SR59230A, reference compound], the “effect on the lipolytic effect of ZAG” value [1] is reported as “completely attenuated”, the “effect on isoprenaline-induced increase in cyclic AMP” value ([2]; SR59230A 10 μM) is reported as “attenuated” and the “effect on protein degradation stimulated by high glucose” value [3] is reported as “attenuated”. For the same molecule, the “effect on isoprenaline-induced increase in cyclic AMP” value [4] was “attenuated”.

For `CC(C)NCC(O)c1ccc(O)c(O)c1` (centres unmarked) [isoprenaline, reference compound], the “cyclic AMP level” value ([2]; 10 μM) was “significant increases in cyclic AMP level”.

In the case of `COc1cccc(-c2cc(=O)c3ccccc3o2)c1N` [PD98059, reference compound], the “effect on ZAG-induced expression of phospho HSL” value [5] is reported as “completely attenuated”.

In the case of `CC(C)NCC(O)COc1cccc2ccccc12` (centres unmarked) [propanolol, propranolol], the “effect on ZAG-induced changes in oral glucose tolerance test” value [6] is reported as “blocked the reduction in peak plasma glucose levels”, the “effect on increased body temperature produced by ZAG” value [6] is reported as “completely attenuated” and the “effect on decrease in body weight produced by ZAG” value ([6]; ZAG 50 μg iv daily) is reported as “completely attenuated”. The “effect on weight loss by oral ZAG” value [7] was “totally attenuates weight loss”.

B1: LMF: lipid mobilizing factor of cancer cachexia, shown immunologically identical to ZAG (protein, UniProt P25311 21-298, looked up)
Zinc-alpha-2-glycoprotein: QENQDGRYSLTYIYTGLSKHVEDVPAFQALGSLNDLQFFRYNSKDRKSQPMGLWRQVEGMEDWKQDSQLQKAREDIFMETLKDIVEYYNDSNGSHVLQGRFGCEIENNRSSGAFWKYYYDGKDYIEFNKEIPAWVPFDPAAQITKQKWEAEPVYVQRAKAYLEEECPATLRKYLKYSKNILDRQDPPSVVVTSHQAPGEKKKLKCLAYDFYPGKIDVHWTRAGEVQEPELRGDVLHNGNGTYQSWVVVAVPPQDTAPYSCHVQHSSLAQPLVVPWEAS
In the case of B1, the Kd [8] is given as 78 ± 4.5 nM.
